Series [1] is described as follows: Test B: Cytotoxicity Assay. The series is classed as cell-based. The note with it: human, uninfected MT-4 cells, same protocol as Test A, CellTiter-Glo. The procedure:
(§1) For the antiviral assay, 40 μL of 1× test concentration of 3-fold serially diluted compound in culture medium with 10% FBS was added to each well of a 384-well plate (10 concentrations) in quadruplicate. MT-4 cells were next mixed with HIV-IIIb at an m.o.i of 0.003 for 1 hour, after which time 35 μL of virus/cell mixture (2000 cells) was immediately added to each well containing 40 μL of diluted compound. The plates were then incubated at 37° C. for 5 days. After 5 days of incubation, 25 μl of 2× concentrated CellTiter-Glo™ Reagent (catalog #G7571, Promega Biosciences, Inc., Madison, Wis.) was added to each well containing MT-4 cells. Cell lysis was carried out by incubating at room temperature for 10 min and then chemiluminescence was read.
Compound cytotoxicity and the corresponding CC50 values was determined using the same protocol as described in the antiviral assay (Test A) except that uninfected cells were used.

A further series concerns HIV-IIIb. The series can be described thus: Test A: Antiviral Assay in MT4 Cells. Format: cell-based, HIV-1. The note with it: Human immunodeficiency virus 1, IIIB, MT4, 120 h, read-out: % inhibition at 2 μM (percent inhibition of virus-induced cell killing), 2 μM drug concentration; MT-4 cells mixed with HIV-IIIb (m.o.i. 0.003), 5 days, CellTiter-Glo; calculated from the dose response curve. The procedure:
as §1

A value given as a limit tells only on which side of the number the result lay.

Turning to `O=C(Cn1nc(C(F)F)c2c1C(F)(F)CCC2(F)F)N[C@@H](Cc1cc(F)cc(F)c1)c1ncc(-c2ccc3c(c2)C(=O)NC3)cc1-c1ccc2c(c1)C(=O)NC2` [Compound 10B, (S)—N-(1-(3,5-bis(3-oxoisoindolin-5-yl)pyridin-2-yl)-2-(3,5-difluorophenyl)ethyl)-2-(3-(difluoromethyl)-4,4,7,7-tetrafluoro-4,5,6,7-tetrahydro-1H-indazol-1-yl)acetamide], in series [1], the CC50 at 5 days is greater than 53.2 µM. For the same compound, the inhibition at 2 µM in the series on HIV-IIIb was 85%.
For `CC(C)(O)C#Cc1ccc(-c2cccc3c(=O)[nH]cnc23)c([C@H](Cc2cc(F)cc(F)c2)NC(=O)Cn2nc(C(F)(F)F)c3c2C(F)(F)[C@@H]2C[C@H]32)n1` [Compound 2, 2-((3bS,4aR)-5,5-difluoro-3-(trifluoromethyl)-3b,4,4a,5-tetrahydro-1H-cyclopropa[3,4]cyclopenta[1,2-c]pyrazol-1-yl)-N—((S)-2-(3,5-difluorophenyl)-1-(6-(3-hydroxy-3-methylbut-1-yn-1-yl)-3-(4-oxo-3,4-dihydroquinazolin-8-yl)pyridin-2-yl)ethyl)acetamide], in series [1], the CC50 at 5 days came to 14.3 µM. For the same compound, in the series with HIV-IIIb, the inhibition at 2 µM is 90%.
With `O=C(Cn1nc(C(F)F)c2c1C(F)(F)CCC2(F)F)N[C@@H](Cc1cc(F)cc(F)c1)c1nc(-c2cnc3[nH]ccc3c2)ccc1-c1cnc2[nH]ccc2c1` [Compound 7, (S)—N-(1-(3,6-bis(1H-pyrrolo[2,3-b]pyridin-5-yl)pyridin-2-yl)-2-(3,5-difluorophenyl)ethyl)-2-(3-(difluoromethyl)-4,4,7,7-tetrafluoro-4,5,6,7-tetrahydro-1H-indazol-1-yl)acetamide], half-maximal cytotoxicity in series [1] (CC50 at 5 days) was put at 5.66 µM. Moreover, in the series with HIV-IIIb, the inhibition at 2 µM was 92%.
The matching figures for `CC(C)(O)C#Cc1cnc([C@H](Cc2cc(F)cc(F)c2)NC(=O)Cn2nc(C(F)F)c3c2C(F)(F)CCC3(F)F)c(-c2ccc3c(c2)C(=O)NC3)c1` [Compound 4H, (S)-2-(3-(difluoromethyl)-4,4,7,7-tetrafluoro-4,5,6,7-tetrahydro-1H-indazol-1-yl)-N-(2-(3,5-difluorophenyl)-1-(5-(3-hydroxy-3-methylbut-1-ynyl)-3-(3-oxoisoindolin-5-yl)pyridin-2-yl)ethyl)acetamide]: 22.8 µM and 74%.

In general, CC50 refers to the concentration at which the toxic effect on the cells reaches its halfway point. The low end stands for harm at low concentration, the high end for better tolerance by the cells.

The values above are taken from patent US20140296266A1, “THERAPEUTIC COMPOUNDS” (Gilead Sciences, Inc., priority 2013, published 2014).
